Experimental data published in ChEMBL document CHEMBL1201862, “PubChem BioAssay data set” (2004).
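Step 1: Grow cells in 96-well plates. Step 2: Expose to compound for 48 hours at 5 concentrations. Step 3: Interpolate endpoints linearly; if unreached, use highest concentration. GI50 = concentration required for 50% inhibition of growth.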 Activity calls are given as the source filed them. Rule as the data show it: active = GI50 up to about 1.1 µM and inactive = higher.

Experiments:
Assay in all cases: growth of human tumour cells (NCI), 48 h
786-0 = tested on: 786-0
A498 = tested on: A498
A549 = tested on: A549
ACHN = tested on: ACHN
CAKI-1 = tested on: CAKI-1
CCRF-CEM = tested on: CCRF-CEM
COLO 205 = tested on: COLO 205
DLD-1 = tested on: DLD-1
DMS-114 = tested on: DMS-114
DMS-273 = tested on: DMS-273
EKVX = tested on: EKVX
HCC 2998 = tested on: HCC 2998
HCT-116 = tested on: HCT-116
HCT-15 = tested on: HCT-15
HL-60 = tested on: HL-60
HOP-18 = tested on: HOP-18
HOP-62 = tested on: HOP-62
HOP-92 = tested on: HOP-92
HT-29 = tested on: HT-29
IGROV-1 = tested on: IGROV-1
K562 = tested on: K562
KM-20L2 = tested on: KM-20L2
KM12 = tested on: KM12
LOX IMVI = tested on: LOX IMVI
LXFL 529 = tested on: LXFL 529
M14 = tested on: M14
M19-MEL = tested on: M19-MEL
MOLT-4 = tested on: MOLT-4
Malme-3M = tested on: Malme-3M
NCI-H226 = tested on: NCI-H226
NCI-H23 = tested on: NCI-H23
NCI-H460 = tested on: NCI-H460
NCI-H522 = tested on: NCI-H522
OVCAR-3 = tested on: OVCAR-3
OVCAR-4 = tested on: OVCAR-4
OVCAR-5 = tested on: OVCAR-5
OVCAR-8 = tested on: OVCAR-8
RPMI-8226 = tested on: RPMI-8226
RXF 393 = tested on: RXF 393
RXF 631 = tested on: RXF 631
SF-268 = tested on: SF-268
SF-295 = tested on: SF-295
SF-539 = tested on: SF-539
SK-MEL-28 = tested on: SK-MEL-28
SK-MEL-2 = tested on: SK-MEL-2
SK-MEL-5 = tested on: SK-MEL-5
SK-OV-3 = tested on: SK-OV-3
SN12C = tested on: SN12C
SNB-19 = tested on: SNB-19
SNB-75 = tested on: SNB-75
SNB-78 = tested on: SNB-78
SR = tested on: SR
TK-10 = tested on: TK-10
U-251 = tested on: U-251
UACC-257 = tested on: UACC-257
UACC-62 = tested on: UACC-62
UO-31 = tested on: UO-31
XF498 = tested on: XF498

## CCCC(OCC)(OCC)OCC
786-0
  GI50: > 100 µM (inactive)
A498
  GI50: > 100 µM (inactive)
A549
  GI50: > 100 µM (inactive)
ACHN
  GI50: > 100 µM (inactive)
CAKI-1
  GI50: > 100 µM (inactive)
CCRF-CEM
  GI50: > 100 µM (inactive)
COLO 205
  GI50: > 100 µM (inactive)
DLD-1
  GI50: > 100 µM (inactive)
DMS-114
  GI50: 69 µM (inactive)
DMS-273
  GI50: 52.1 µM (inactive)
EKVX
  GI50: > 100 µM (inactive)
HCC 2998
  GI50: > 100 µM (inactive)
HCT-116
  GI50: 27.5 µM (inactive)
HCT-15
  GI50: > 100 µM
HL-60
  GI50: > 100 µM (inactive)
HOP-18
  GI50: > 100 µM (inactive)
HOP-62
  GI50: > 100 µM (inactive)
HOP-92
  GI50: > 100 µM (inactive)
HT-29
  GI50: > 100 µM (inactive)
IGROV-1
  GI50: > 100 µM (inactive)
K562
  GI50: > 100 µM (inactive)
KM-20L2
  GI50: > 100 µM (inactive)
KM12
  GI50: > 100 µM (inactive)
LOX IMVI
  GI50: 48.8 µM (inactive)
LXFL 529
  GI50: > 100 µM (inactive)
M14
  GI50: > 100 µM (inactive)
M19-MEL
  GI50: > 100 µM (inactive)
MOLT-4
  GI50: > 100 µM (inactive)
Malme-3M
  GI50: > 100 µM (inactive)
NCI-H226
  GI50: > 100 µM (inactive)
NCI-H23
  GI50: > 100 µM (inactive)
NCI-H460
  GI50: > 100 µM (inactive)
NCI-H522
  GI50: > 100 µM (inactive)
OVCAR-3
  GI50: > 100 µM (inactive)
OVCAR-4
  GI50: > 100 µM (inactive)
OVCAR-5
  GI50: > 100 µM (inactive)
OVCAR-8
  GI50: > 100 µM (inactive)
RPMI-8226
  GI50: > 100 µM (inactive)
RXF 393
  GI50: > 100 µM (inactive)
RXF 631
  GI50: > 100 µM (inactive)
SF-268
  GI50: > 100 µM (inactive)
SF-295
  GI50: > 100 µM (inactive)
SF-539
  GI50: > 100 µM (inactive)
SK-MEL-28
  GI50: > 100 µM (inactive)
SK-MEL-2
  GI50: > 100 µM (inactive)
SK-MEL-5
  GI50: > 100 µM (inactive)
SK-OV-3
  GI50: > 100 µM (inactive)
SN12C
  GI50: > 100 µM (inactive)
SNB-19
  GI50: > 100 µM (inactive)
SNB-75
  GI50: > 100 µM (inactive)
SNB-78
  GI50: > 100 µM (inactive)
SR
  GI50: > 100 µM (inactive)
TK-10
  GI50: > 100 µM (inactive)
U-251
  GI50: > 100 µM (inactive)
UACC-257
  GI50: > 100 µM (inactive)
UACC-62
  GI50: > 100 µM (inactive)
UO-31
  GI50: > 100 µM (inactive)
XF498
  GI50: > 100 µM (inactive)
